# Assay results reported in patent US11180474B2 (BRISTOL-MYERS SQUIBB COMPANY, priority 2016, dated 2021).
# pIC50: −log10 of the molar value.
# Columns and labels:
# human TLR7 = target: T1, human TLR7 (Homo sapiens, UniProt Q9NYK1); assay: TLR7 inhibition reporter assay (HEK-Blue cells, SEAP reporter, gardiquimod stimulation); type: cell-based; conditions: HEK-Blue cells overexpressing human TLR7, gardiquimod 7.5 μM
# T1 construct: host or cells: HEK-Blue cells
# T1 sequence (Q9NYK1 27-1049): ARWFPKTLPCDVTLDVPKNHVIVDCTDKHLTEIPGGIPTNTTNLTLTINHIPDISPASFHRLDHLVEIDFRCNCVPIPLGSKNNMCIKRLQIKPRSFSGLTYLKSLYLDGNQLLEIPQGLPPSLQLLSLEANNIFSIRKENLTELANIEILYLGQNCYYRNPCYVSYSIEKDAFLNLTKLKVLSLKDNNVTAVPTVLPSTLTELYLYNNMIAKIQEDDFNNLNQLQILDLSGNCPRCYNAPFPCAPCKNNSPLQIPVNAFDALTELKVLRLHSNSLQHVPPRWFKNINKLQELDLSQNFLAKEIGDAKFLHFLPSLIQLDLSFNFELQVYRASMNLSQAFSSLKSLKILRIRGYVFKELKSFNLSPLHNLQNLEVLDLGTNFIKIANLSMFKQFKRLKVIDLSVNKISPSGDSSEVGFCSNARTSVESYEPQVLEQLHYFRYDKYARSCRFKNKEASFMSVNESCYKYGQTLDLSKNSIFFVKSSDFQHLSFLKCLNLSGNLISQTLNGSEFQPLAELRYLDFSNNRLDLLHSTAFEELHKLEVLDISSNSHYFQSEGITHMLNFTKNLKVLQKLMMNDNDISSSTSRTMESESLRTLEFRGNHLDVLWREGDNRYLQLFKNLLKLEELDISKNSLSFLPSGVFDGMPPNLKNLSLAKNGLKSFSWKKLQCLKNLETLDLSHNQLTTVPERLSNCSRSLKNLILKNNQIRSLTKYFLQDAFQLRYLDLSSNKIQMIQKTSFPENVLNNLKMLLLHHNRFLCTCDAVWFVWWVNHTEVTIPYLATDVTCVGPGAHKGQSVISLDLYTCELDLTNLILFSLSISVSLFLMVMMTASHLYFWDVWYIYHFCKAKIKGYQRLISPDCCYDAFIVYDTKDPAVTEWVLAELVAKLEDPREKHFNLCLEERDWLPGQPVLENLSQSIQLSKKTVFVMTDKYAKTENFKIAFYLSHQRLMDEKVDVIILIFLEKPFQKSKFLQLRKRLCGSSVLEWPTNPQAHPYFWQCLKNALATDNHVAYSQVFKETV
# Outline: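 Cells (15000/well for TLR7, 20,000 for TLR8) were treated with compounds over 0.05 nM-50 μM final. After 22 h at 37° C, 5% CO2, SEAP was measured with HEK-Blue Detection reagent; percent inhibition was taken as reduction of agonist-plus-DMSO signal relative to a known inhibitor.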
# human TLR9 = target: T2, human TLR9 (Homo sapiens, UniProt Q9NR96); assay: TLR9 inhibition reporter assay (HEK-Blue cells, SEAP reporter, ODN2006 stimulation); type: cell-based; conditions: HEK-Blue cells overexpressing human TLR9, ODN2006 5 nM
# T2 construct: host or cells: HEK-Blue cells
# T2 sequence (Q9NR96 26-1032): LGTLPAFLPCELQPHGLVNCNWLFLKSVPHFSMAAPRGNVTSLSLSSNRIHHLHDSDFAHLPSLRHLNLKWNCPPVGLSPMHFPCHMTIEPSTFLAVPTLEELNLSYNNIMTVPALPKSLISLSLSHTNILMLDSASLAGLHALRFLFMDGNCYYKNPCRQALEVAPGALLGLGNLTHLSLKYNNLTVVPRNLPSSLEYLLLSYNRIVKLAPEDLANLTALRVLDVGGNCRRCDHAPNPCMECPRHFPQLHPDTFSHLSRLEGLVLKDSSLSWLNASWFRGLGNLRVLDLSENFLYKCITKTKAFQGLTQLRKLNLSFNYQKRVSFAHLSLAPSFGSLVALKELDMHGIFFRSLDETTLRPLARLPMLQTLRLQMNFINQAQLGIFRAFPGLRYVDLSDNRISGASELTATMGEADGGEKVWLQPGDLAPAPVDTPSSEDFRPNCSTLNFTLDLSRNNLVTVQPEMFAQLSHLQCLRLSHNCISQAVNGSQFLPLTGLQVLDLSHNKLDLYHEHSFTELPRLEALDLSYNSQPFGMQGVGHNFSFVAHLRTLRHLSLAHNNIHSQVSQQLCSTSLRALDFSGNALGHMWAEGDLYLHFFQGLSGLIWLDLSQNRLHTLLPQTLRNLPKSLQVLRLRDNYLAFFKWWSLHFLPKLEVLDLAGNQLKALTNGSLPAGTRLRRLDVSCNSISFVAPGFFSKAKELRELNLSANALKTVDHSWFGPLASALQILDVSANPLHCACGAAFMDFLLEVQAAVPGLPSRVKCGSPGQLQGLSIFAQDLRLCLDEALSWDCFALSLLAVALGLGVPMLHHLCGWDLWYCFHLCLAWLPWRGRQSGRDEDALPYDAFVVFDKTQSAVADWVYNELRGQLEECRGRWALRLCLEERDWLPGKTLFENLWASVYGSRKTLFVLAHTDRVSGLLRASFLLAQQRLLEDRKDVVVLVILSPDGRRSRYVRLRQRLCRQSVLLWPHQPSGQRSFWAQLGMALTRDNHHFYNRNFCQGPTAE
# Outline: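 Human TLR7/8/9 HEK-Blue reporter lines; dose range 0.05 nM–50 μM; 30 min RT preincubation; stimulus gardiquimod 7.5 μM / R848 15.9 μM / ODN2006 5 nM respectively; 22 h, 37 °C; SEAP detected colorimetrically.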
SMILES,pIC50 (human TLR7),pIC50 (human TLR9)
"CCc1c(-c2ccc(OC)c(OC)c2)[nH]c2ccc(C3CCN(C(=O)CN4CCCC(CO)C4)CC3)cc12 (stereo not shown) [Example 169, 1-(4-(2-(3,4-dimethoxyphenyl)-3-ethyl-1H-indol-5-yl)piperidin-1-yl)-2-(3-(hydroxymethyl)piperidin-1-yl)ethan-1-one]",6.84,5.68
"CCc1c(-c2ccc(OC)c(OC)c2)[nH]c2ccc(C3CCN(C(=O)CN(C)C(C)C)CC3)cc12 [Example 170, 1-(4-(2-(3,4-dimethoxyphenyl)-3-ethyl-1H-indol-5-yl)piperidin-1-yl)-2-(isopropyl(methyl)amino) ethan-1-one]",6.59,5.78
"CCc1c(-c2ccc(OC)c(OC)c2)[nH]c2ccc(C3CCN(C(=O)CN4CCN(C(=O)C5CCCO5)CC4)CC3)cc12 (stereo not shown) [Example 172, 1-(4-(2-(3,4-dimethoxyphenyl)-3-ethyl-1H-indol-5-yl)piperidin-1-yl)-2-(4-(tetrahydrofuran-2-carbonyl)piperazin-1-yl)ethan-1-one]",6.58,4.71
"COc1ccc(-c2[nH]c3ccc(C4CCN(Cc5cccc(NS(C)(=O)=O)c5)CC4)cc3c2C(C)C)cc1OC [Example 260, N-(3-((4-(2-(3,4-dimethoxyphenyl)-3-isopropyl-1H-indol-5-yl)piperidin-1-yl)methyl)phenyl)methanesulfonamide]",7.19,5.57
"COc1ccc(-c2[nH]c3ccc(C4CCN(Cc5nccs5)CC4)cc3c2C(C)C)cc1OC [Example 261, 2-((4-(2-(3,4-dimethoxyphenyl)-3-isopropyl-1H-indol-5-yl)piperidin-1-yl)methyl)thiazole]",6.74,5.24
"COc1ccc(-c2[nH]c3ccc(C4CCN(Cc5ccc(-n6ccnc6)cc5)CC4)cc3c2C(C)C)cc1OC [Example 263, 5-(1-(4-(1H-imidazol-1-yl)benzyl)piperidin-4-yl)-2-(3,4-dimethoxyphenyl)-3-isopropyl-1H-indole]",7.09,6.10
"COc1ccc(-c2[nH]c3ccc(C4CCN(Cc5cccc(C#N)c5)CC4)cc3c2C(C)C)cc1OC [Example 264, 3-((4-(2-(3,4-dimethoxyphenyl)-3-isopropyl-1H-indol-5-yl)piperidin-1-yl)methyl)benzonitrile]",6.44,5.29
"COc1ccc(-c2[nH]c3ccc(C4CCN(Cc5cccc(C(F)(F)F)c5)CC4)cc3c2C(C)C)cc1OC [Example 269, 2-(3,4-dimethoxyphenyl)-3-isopropyl-5-(1-(3-(trifluoromethyl)benzyl)piperidin-4-yl)-1H-indole]",5.57,4.73
"COc1ccc(-c2[nH]c3ccc(C4CCN(Cc5ccc(OC(F)(F)F)cc5)CC4)cc3c2C(C)C)cc1OC [Example 271, 2-(3,4-dimethoxyphenyl)-3-isopropyl-5-(1-(4-(trifluoromethoxy)benzyl)piperidin-4-yl)-1H-indole]",5.62,4.98
"COc1ccc(-c2[nH]c3ccc(C4CCN(C(=O)CN(C)C)CC4)cc3c2C2CCOCC2)cc1OC [Example 393, 1-(4-(2-(3,4-dimethoxyphenyl)-3-(tetrahydro-2H-pyran-4-yl)-1H-indol-5-yl)piperidin-1-yl)-2-(dimethylamino)ethan-1-one]",6.61,5.31

# Continued by rising pIC50 (human TLR7), values first:
pIC50 (human TLR7),pIC50 (human TLR9),SMILES
5.67,5.97,"COc1ccc(-c2[nH]c3ccc(C4CCN(CCN(C)C)CC4)cc3c2C)cc1OC [Example 415, 2-(4-(2-(3,4-dimethoxyphenyl)-3-methyl-1H-indol-5-yl)piperidin-1-yl)-N,N-dimethylethan-1-amine]"
5.93,5.59,"CCCC[C@@H](CO)NCC(=O)N1CCC(c2ccc3[nH]c(-c4ccc(OC)c(OC)c4)c(CC)c3c2)CC1 [Example 174, (S)-1-(4-(2-(3,4-dimethoxyphenyl)-3-ethyl-1H-indol-5-yl)piperidin-1-yl)-2-((1-hydroxyhexan-2-yl)amino)ethan-1-one]"
6.21,≤ 4.30,"CCc1c(-c2ccc(OC)c(OC)c2)[nH]c2ccc(C3CCN(C(=O)NC(C)C)CC3)cc12 [Example 182, 4-(2-(3,4-dimethoxyphenyl)-3-ethyl-1H-indol-5-yl)-N-isopropylpiperidine-1-carboxamide]"
6.31,≤ 4.30,"CCc1c(-c2ccc(OC)c(OC)c2)[nH]c2ccc(C3CCN(C(=O)CN4CCN(C(C)=O)CC4)CC3)cc12 [Example 171, 2-(4-acetylpiperazin-1-yl)-1-(4-(2-(3,4-dimethoxyphenyl)-3-ethyl-1H-indol-5-yl)piperidin-1-yl)ethan-1-one]"
6.35,5.49,"COc1ccc(-c2[nH]c3ccc(C4CCN(C(=O)CN5CCCCC5C[C@@H]5CCCN5C)CC4)cc3c2C(C)C)cc1OC (stereo partly drawn) [Example 225, 1-(4-(2-(3,4-dimethoxyphenyl)-3-isopropyl-1H-indol-5-yl)piperidin-1-yl)-2-(2-(((S)-1-methylpyrrolidin-2-yl)methyl)piperidin-1-yl)ethan-1-one]"
6.52,5.78,"COc1ccc(-c2[nH]c3ccc(C4CCNCC4)cc3c2C2CCOCC2)cc1OC [Example 389, 2-(3,4-dimethoxyphenyl)-5-(piperidin-4-yl)-3-(tetrahydro-2H-pyran-4-yl)-1H-indole]"
6.67,≤ 4.30,"COc1ccc(-c2[nH]c3ccc(C4CCN(C(=O)CNc5cc(C(C)(C)C)n[nH]5)CC4)cc3c2C(C)C)cc1OC [Example 216, 2-((3-(tert-butyl)-1H-pyrazol-5-yl)amino)-1-(4-(2-(3,4-dimethoxyphenyl)-3-isopropyl-1H-indol-5-yl)piperidin-1-yl)ethan-1-one]"
6.72,5.71,"COc1ccc(-c2[nH]c3ccc(C4CCN(Cc5ccc(N(C)C)cc5)CC4)cc3c2C(C)C)cc1OC [Example 270, 4-((4-(2-(3,4-dimethoxyphenyl)-3-isopropyl-1H-indol-5-yl)piperidin-1-yl)methyl)-N,N-dimethylaniline]"
6.74,≤ 4.30,"CCC(CC)CN1CCC(c2ccc3[nH]c(-c4ccc(OC)c(OC)c4)c(C(C)C)c3c2)CC1 [Example 265, 2-(3,4-dimethoxyphenyl)-5-(1-(2-ethylbutyl)piperidin-4-yl)-3-isopropyl-1H-indole]"
6.79,≤ 4.30,"COc1ccc(-c2[nH]c3ccc(C4CCN(C(=O)CNCC(F)(F)F)CC4)cc3c2C(C)C)cc1OC [Example 221, 1-(4-(2-(3,4-dimethoxyphenyl)-3-isopropyl-1H-indol-5-yl)piperidin-1-yl)-2-((2,2,2-trifluoroethyl)amino)ethan-1-one]"
